Data taken from the NIST ThermoML archive (doi:10.1016/j.fluid.2004.10.027).
Numbers after ± are expanded uncertainties.

Legend:
[1] = refractive index (Na D-line) (dimensionless); settings: 298.15 K; 101.33 kPa; Liquid; Standard Abbe refractometry
[2] = Liquid; for mass density: 298.15 K, 101.33 kPa

refractive index [1]	mass density [2]	SMILES	further results
1.3781 ± 0.0007	863.7 ± 1.8 kg/m3	COCCOC [1,2-dimethoxyethane]	vapor or sublimation pressure ([2]; 357.05 K): 95.8 ± 4.8 kPa
1.4097 ± 0.0007	726.4 ± 2.9 kg/m3	CCCCCCCCCC [decane]	vapor or sublimation pressure ([2]; 445.25 K): 95.8 ± 4.9 kPa
1.4072 ± 0.0007	889.2 ± 4.7 kg/m3	C1CCOC1 [tetrahydrofuran]	vapor or sublimation pressure ([2]; 337.55 K): 95.8 ± 4.8 kPa
1.451 ± 0.0007	945.1 ± 1.1 kg/m3	O=C1CCCCC1 [cyclohexanone]	vapor or sublimation pressure ([2]; 426.45 K): 95.8 ± 4.8 kPa

SMILES	refractive index [1]	mass density [2]	further results
Cc1cccc(C)c1 [1,3-dimethylbenzene]	1.4946 ± 0.0007	860.1 ± 1.8 kg/m3	vapor or sublimation pressure ([2]; 410.35 K): 95.8 ± 4.8 kPa
Cc1ccccc1C [1,2-dimethylbenzene]	1.503 ± 0.0007	875.9 ± 1.7 kg/m3	vapor or sublimation pressure ([2]; 415.55 K): 95.8 ± 4.8 kPa
Cc1ccc(C)cc1 [1,4-dimethylbenzene]	1.4933 ± 0.0007	865.6 ± 4.7 kg/m3	vapor or sublimation pressure ([2]; 409.35 K): 95.8 ± 4.8 kPa
